Patent US10624891B2, “Method of diagnosing and treating skin necroptosis disease comprising RIP3-MLKL pathway blocker” (Ajou University Industry-Academic Cooperation Foundation, priority 2015, dated 2020)
Read-outs that look alike come from different tables or passages of the source. Where a SMILES comes first, the peptide text is derived from it. The star is where a group is joined. Cbz = O=C(OCc1ccccc1)*; CH2F = FC*

Key:
[1] = test system: RIP3 overexpressing cells; assay: MLKL phosphorylation inhibition in RIP3 overexpressing cells; format: cell-based, human
Description: As shown in FIGS. 17A and 17B, the basal phosphorylation of MLKL in RIP3 overexpressing cells, and SNP-induced p-MLKL were eliminated by an RIP3 inhibitor dabrafenib (FIG. 17A).

SNP-induced cell death = SNP-induced cell death with ROS scavenger or MAPK pathway inhibitors; format: cell-based; conditions: pretreatment or treatment with inhibitor
Description: However, as shown in FIGS. 11A and 11B, in cells pretreated with NAC having ROS scavenging ability, SNP-induced cell death was inhibited similarly in Nec-1 treated group (FIG. 11A). From this, it was confirmed again that ROS is associated with SNP-induced cell death. Further, SNP-induced cell death was inhibited by treatment with JNK inhibitor […] (SP), p38 inhibitor sB202190 (SB), and MEK, upstream of ERK, inhibitor PD98059 (PD) (FIG. 11B).

HaCaT cells = assay: SNP-induced cell death in HaCaT cells, MTT assay and phase-contrast microscopy; format: cell-based, human; conditions: for SNP-induced cell death (cell viability, MTT assay): pretreated with 80 μM of Nec-1 and/or 20 μM of zVAD for 1 hour, followed by SNP
Description: Whether SNP-induced cell death is improved by […] necrostatin-1 (Nec-1), and combination treatment of zVAD and Nec-1 was examined in HaCaT cells using MTT assay and phase-contrast microscopy. Cells were pretreated with 80 μM of Nec-1 and/or 20 μM of zVAD for 1 hour, followed by SNP treatment.

HaCaT and HEKn = assay: TNFα-induced necroptosis stimuli (TCZ or TSZ) in keratinocytes; format: cell-based, human; conditions: TNFα + zVAD + cyclohexamide or SMAC mimetic
Description: The immortal human keratinocyte line HaCaT and primary human epidermal keratinocyte isolated from neonatal foreskin (HEKn) responded to prototypical necroptosis stimuli induced by TNFα (TNFα[…]+zVAD+cyclohexamide or SMAC mimetic; also referred to herein as TCZ or TSZ). […] Additionally, from a knockout model, it was confirmed whether RIP3 and RIP1 affect TNF-induced cell death via necroptosis.

CC(C)(C)c1nc(-c2cccc(NS(=O)(=O)c3c(F)cccc3F)c2F)c(-c2ccnc(N)n2)s1 [dabrafenib]
SNP-induced p-MLKL ([1]; SNP treated): eliminated | basal phosphorylation of MLKL ([1]; no SNP): eliminated | protection from acute SNP cytotoxicity / SNP-induced cell death (HEKn cells): protected HEKn cells from acute SNP cytotoxicity more effectively than zVAD

Oc1ccc(-c2nc(-c3ccncc3)c(-c3ccc(F)cc3)[nH]2)cc1 [sB202190]
SNP-induced cell death (SNP-induced cell death): inhibited

CC(=O)N[C@@H](CS)C(=O)O [NAC]
SNP-induced cell death (SNP-induced cell death): inhibited

COc1nccnc1NS(=O)(=O)c1ccc(NC(=O)/C=C/c2ccc([N+](=O)[O-])s2)cc1 [NSA, necrosulfonamide]
protection from acute SNP cytotoxicity / SNP-induced cell death (HEKn cells; HEKn cells): protected HEKn cells from acute SNP cytotoxicity more effectively than zVAD

CN1C(=O)C(Cc2c[nH]c3ccccc23)NC1=S (stereo not drawn) [Nec-1, necrostatin-1]
SNP-induced cell death (SNP-induced cell death): inhibited | protection from acute SNP cytotoxicity / SNP-induced cell death (HEKn cells; HEKn cells): protected HEKn cells from acute SNP cytotoxicity more effectively than zVAD | SNP-induced cell death (phase-contrast microscopy and Annexin-V staining) (HaCaT cells): inhibited | SNP-induced cell death (cell viability, MTT assay) (HaCaT cells): reduced

COc1cccc(-c2cc(=O)c3ccccc3o2)c1N [PD98059]
SNP-induced cell death (SNP-induced cell death): inhibited

O=C1c2ccccc2-c2n[nH]c3cccc1c23 [SP420119]
SNP-induced cell death (SNP-induced cell death): inhibited

CC(NC(=O)C(NC(=O)OCc1ccccc1)C(C)C)C(=O)NC(CC(=O)O)C(=O)CF (stereo not drawn) [zVAD] (Cbz-Val-Ala-Asp-CH2F; configuration not given here)
TNF-induced cell death (HaCaT and HEKn): did not prevent | caspase-3 and PARP processing (HaCaT and HEKn): completely blocked | SNP-induced cell death (cell viability, MTT assay) (HaCaT cells): reduced
